We go through eleven compounds from patent US20260132125A1, “PESTICIDALLY ACTIVE FUSED BICYCLIC HETEROAROMATIC COMPOUNDS” (priority 2022, published 2026).

Each structure is given as a SMILES string.

Holding throughout (format): in vivo
The test system of one experiment is Chilo suppressalis. Description: Example B1: activity against Chilo suppressalis (striped rice stemborer), artificial diet. To be noted: 144 h, 200 ppm, L2 larvae, 6 days after infestation, read-out: control (at least one of mortality, anti-feedant effect, growth inhibition). The procedure, abridged:
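First, artificial diet was treated with aqueous solutions prepared from 10'000 ppm DMSO stocks; second, after drying, L2 larvae (6-8/well) were added; third, effects were assessed at 6 days against untreated controls, counting control when any of three categories was higher.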

The test system of the next experiment is Diabrotica balteata. Description: Example B2: activity against Diabrotica balteata (corn root worm), maize sprouts. To be noted: 96 h, L2 larvae, 4 days after infestation, read-out: effect in at least one of the two categories (mortality or growth inhibition). The method, boiled down:
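Maize sprouts on agar were sprayed with aqueous test solutions made from 10′000 ppm DMSO stocks, dried, then infested with 6–10 L2 larvae per well. Mortality and growth inhibition were scored against untreated samples 4 days after infestation, at an application rate of 200 ppm.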

A further experiment deals with Euschistus heros. Description: Example B3: activity against Euschistus heros (neotropical brown stink bug), soybean leaves. The note with it: for percent effect (mortality or growth inhibition) at 200 ppm: 120 h, N2 nymphs, 5 days after infestation, read-out: effect in at least one of the two categories (mortality or growth inhibition). Here is the method: Soybean leaves on agar in 24-well microtiter plates were sprayed with aqueous test solutions prepared from 10′000 ppm DMSO stock solutions. After drying the leaves were infested with N2 nymphs. The samples were assessed for mortality and growth inhibition in comparison to untreated samples 5 days after infestation. The following compounds gave an effect of at least 80% in at least one of the two categories (mortality or growth inhibition) at an application rate of 200 ppm: […]

In experiment [1] the test system is Myzus persicae. As to the kind of experiment: Example B4: activity against Myzus persicae (green peach aphid), intrinsic activity. To be noted: 120 h, test rate 12 ppm, 5 days after infestation. The procedure, abridged:
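Compounds from 10′000 ppm DMSO stocks were mixed into sucrose solution in 24-well plates sealed with Parafilm. Aphid-infested pea seedlings were set on the membrane and the plate inverted so aphids fed through it. Mortality scored 5 days after infestation.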

Experiment [2] has as its system Plutella xylostella. Description: Example B5: activity against Plutella xylostella (diamond back moth), artificial diet, eggs. To be noted: 192 h, 8 days after infestation, read-out: effect in at least one of the two categories (mortality or growth inhibition). The procedure, abridged: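 Artificial diet in 24-well plates was treated with aqueous dilutions of DMSO stocks, dried, then infested with Plutella eggs. Mortality and growth inhibition were scored against untreated samples 8 days after infestation; application rate 200 ppm.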

The next experiment deals with Spodoptera littoralis. As to the kind of experiment: Example B6: activity against Spodoptera littoralis (Egyptian cotton leaf worm), cotton leaf discs. The note with it: foliar, 72 h, 200 ppm, L1 larvae, 3 days after infestation, read-out: control (at least one of mortality, anti-feedant effect, growth inhibition). The method, boiled down:
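Five L1 larvae per sprayed, dried cotton leaf disc on agar. Activity is counted when mortality, anti-feedant effect or growth inhibition exceeds the untreated sample at day 3.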

Experiment [3] concerns Myzus persicae. Description: Example B7b: Myzus persicae feeding/contact activity, eggplant leaf discs. The note with it: foliar, 144 h, mixed ages, 6 days after infestation. On the procedure: Eggplant leaf discs were placed onto agar in a 24-well microtiter plate and sprayed with aqueous test solutions prepared from 10′000 ppm DMSO stock solutions. After drying, the leaf discs were infested with an aphid population of mixed ages. The samples were assessed for mortality 6 days after infestation.

The next experiment has as its system Pseudoplusia includens. As to the kind of experiment: Example B9: Pseudoplusia includens (soybean looper), larvicide, feeding/contact, soybean plants. The note with it: Chrysodeixis includens; for percent effect (mortality or growth inhibition) at 50 ppm: 120 h, L2 larvae, 5 days after infestation, read-out: effect in at least one of the two categories (mortality or growth inhibition). On the procedure: Soybean plants were treated in a spray chamber, cut off and placed into petri dishes containing wet filter paper. 1d after application leaves were infested with 5 L2 larvae and covered with a fabric filter and plastic lids. 5 days after infestation the samples were assessed for mortality and growth inhibition. The following compounds gave an effect of at least 80% in at least one of the two categories (mortality or growth inhibition) at an application rate of 50 ppm: […]

Experiment [4] concerns Plutella xylostella. As to the kind of experiment: B14b: Plutella xylostella (diamond back moth), larvicide L3, feeding/contact, Chinese cabbage. The source says: Activity of compounds P5, P17 and P21 according to the preparatory examples and of a compound from WO 21/083936 against Spodoptera littoralis (Example B6 above), Chilo suppressalis (Example B1 above), Diabrotica balteata (Example B14a below), Plutella xylostella (Example B14b below) and Pseudoplusia includens (Example B9 above) is summarized in Table B14. B14a: Diabrotica balteata (Corn root worm). Larvicide, feeding/contact 3 Corn seedlings were placed on wetted filter paper in plastic cups, and 3 ml of diluted test solutions were pipetted onto them. The cups were infested with 10 L2 larvae and checked for mortality and growth regulation 5 days after treatment. B14b: Plutella xylostella (Diamond back moth). Larvicide L3, feeding/contact Chinese cabbage plants were sprayed with diluted test solutions in an application chamber. Cut off leaves were placed into petri dishes with wetted filter paper and infested 1 day after application with 10 L3 larvae. Samples were assessed 4 days after infestation for mortality and growth regulation.

In general, mortality refers to the share of the test organisms that died. Read a low mortality as a weak lethal effect.

In the case of `C[C@H](Nc1ncnc2c(C(F)(F)F)cc(Cl)cc12)c1ncnn1-c1cc(C(=O)N(C)C2CC2)ncn1` [Compound P63, 6-[5-[(1S)-1-[[6-chloro-8-(trifluoromethyl)quinazolin-4-yl]amino]ethyl]-1,2,4-triazol-1-yl]-N-cyclopropyl-N-methyl-pyrimidine-4-carboxamide], the percent control (mortality, anti-feedant effect or growth inhibition) at 200 ppm in the experiment with Chilo suppressalis and with Spodoptera littoralis was no less than 80% throughout. Besides, the percent effect (mortality or growth inhibition) at 200 ppm with Diabrotica balteata, in the experiment on Euschistus heros and in the experiment on Plutella xylostella [2] was no less than 80% in each case. This compound also gave a mortality at 12 ppm with Myzus persicae [1] of no less than 80%. Further, the mortality at 200 ppm with Myzus persicae [3] is no less than 80%.

For the compound `CNC(=O)c1cc(-n2ncnc2[C@H](C)N(C)c2ncnc3c(S(=O)(=O)C(F)(F)F)cc(Cl)cc23)ncn1` [Compound P61], the percent control (mortality, anti-feedant effect or growth inhibition) at 200 ppm with Chilo suppressalis and in the experiment with Spodoptera littoralis was no less than 80% each time. Besides, the percent effect (mortality or growth inhibition) at 200 ppm in the experiment on Diabrotica balteata, in the experiment on Euschistus heros and with Plutella xylostella [2] was no less than 80% in each case. In the experiment with Myzus persicae [1], this compound displayed a mortality at 12 ppm of no less than 80%. The compound also showed a mortality at 200 ppm in the experiment on Myzus persicae [3] of no less than 80%. For the same compound, in the experiment with Pseudoplusia includens, the percent effect (mortality or growth inhibition) at 50 ppm was no less than 80%.

Take `CCN(C)C(=O)c1cc(-n2ncnc2[C@H](C)N(C)c2ncnc3c(C(F)(F)F)cc(Cl)cc23)ncn1` [Compound P55, 6-[5-[(1S)-1-[[6-chloro-8-(trifluoromethyl)quinazolin-4-yl]-methyl-amino]ethyl]-1,2,4-triazol-1-yl]-N-ethyl-N-methyl-pyrimidine-4-carboxamide]: the percent control (mortality, anti-feedant effect or growth inhibition) at 200 ppm with Chilo suppressalis and in the experiment with Spodoptera littoralis was no less than 80% in each case. Besides, the percent effect (mortality or growth inhibition) at 200 ppm with Diabrotica balteata, in the experiment with Euschistus heros and with Plutella xylostella [2] was no less than 80% throughout. This compound also registered a mortality at 12 ppm with Myzus persicae [1] of no less than 80%. In addition, the mortality at 200 ppm in the experiment on Myzus persicae [3] was no less than 80%. For the same compound, the percent effect (mortality or growth inhibition) at 50 ppm in the experiment with Pseudoplusia includens is no less than 80%.

As to `CC(Nc1ncnc2c(Br)cc(Br)cc12)c1ncnn1-c1ncccn1` (stereo not drawn) [WO 21/083936 P.29, reference compound], in the experiment on Euschistus heros, the mortality at 200 ppm was 0%. In addition, the mortality at 3 ppm in the experiment on Pseudoplusia includens (Pseudoplusia includens) is 30%; in the experiment on Plutella xylostella [4] (3 ppm), 60%.

`C[C@H](Nc1ncnc2c(C(F)(F)F)cc(Cl)cc12)c1ncnn1-c1ncccn1` [WO 21/083936 P.24, reference compound] showed a mortality at 200 ppm in the experiment with Euschistus heros of 0%. For the same compound, the mortality at 0.8 ppm in the experiment on Pseudoplusia includens (Pseudoplusia includens, 0.8 ppm) was 0%; in the experiment with Plutella xylostella [4], 5%.

For `C[C@@H](c1ncnn1-c1cc(C(N)=O)ncn1)N(C)c1ncnc2c(S(=O)(=O)C(F)(F)F)cc(Cl)cc12` [Compound P67, 6-[5-[(1S)-1-[[6-chloro-8-(trifluoromethylsulfonyl)quinazolin-4-yl]-methyl-amino]ethyl]-1,2,4-triazol-1-yl]pyrimidine-4-carboxamide], the percent control (mortality, anti-feedant effect or growth inhibition) at 200 ppm in the experiment on Chilo suppressalis and with Spodoptera littoralis was no less than 80% each time. In addition, the percent effect (mortality or growth inhibition) at 200 ppm in the experiment on Diabrotica balteata, in the experiment on Euschistus heros and with Plutella xylostella [2] was no less than 80% in each case. In the experiment with Myzus persicae [1], this compound registered a mortality at 12 ppm of no less than 80%. In the experiment with Myzus persicae [3], this compound returned a mortality at 200 ppm of no less than 80%.

`C[C@H](Nc1ncnc2c(Cl)cc(C(F)(F)F)cc12)c1ncnn1-c1ncccn1` [WO 21/083936 P.18, reference compound] showed a mortality at 200 ppm in the experiment with Euschistus heros of 0%. Besides, the mortality at 3 ppm in the experiment with Pseudoplusia includens (Pseudoplusia includens) is 40%. In the experiment with Plutella xylostella [4], this compound showed a mortality at 0.8 ppm of 65%.

As to `C[C@H](Nc1ncnc2c(C(F)(F)F)cc(Cl)cc12)c1ncnn1-c1cc(C(=O)NCC#N)ncn1` [Compound P38, 6-[5-[(1S)-1-[[6-chloro-8-(trifluoromethyl)quinazolin-4-yl]amino]ethyl]-1,2,4-triazol-1-yl]-N-(cyanomethyl)pyrimidine-4-carboxamide], the percent control (mortality, anti-feedant effect or growth inhibition) at 200 ppm with Chilo suppressalis and in the experiment on Spodoptera littoralis was no less than 80% throughout. Besides, the percent effect (mortality or growth inhibition) at 200 ppm with Diabrotica balteata, in the experiment on Euschistus heros and with Plutella xylostella [2] was no less than 80% each time. This compound registered a mortality at 12 ppm in the experiment on Myzus persicae [1] of no less than 80%. This compound yielded a mortality at 200 ppm in the experiment with Myzus persicae [3] of no less than 80%. In the experiment with Pseudoplusia includens, the percent effect (mortality or growth inhibition) at 50 ppm is no less than 80%.

As to `C[C@@H](c1ncnn1-c1cc(C(=O)NCC#N)ncn1)N(C)c1ncnc2c(C(F)(F)F)cc(Cl)cc12` [Compound P52, 6-[5-[(1S)-1-[[6-chloro-8-(trifluoromethyl)quinazolin-4-yl]-methyl-amino]ethyl]-1,2,4-triazol-1-yl]-N-(cyanomethyl)pyrimidine-4-carboxamide], the percent control (mortality, anti-feedant effect or growth inhibition) at 200 ppm in the experiment on Chilo suppressalis and in the experiment with Spodoptera littoralis was no less than 80% each time. In addition, the percent effect (mortality or growth inhibition) at 200 ppm with Diabrotica balteata, with Euschistus heros and with Plutella xylostella [2] was no less than 80% throughout. Also, in the experiment with Myzus persicae [1], the mortality at 12 ppm was no less than 80%. Besides, the mortality at 200 ppm with Myzus persicae [3] was no less than 80%. The percent effect (mortality or growth inhibition) at 50 ppm in the experiment with Pseudoplusia includens is no less than 80%.

`CCN(C)C(=O)c1cc(-n2ncnc2[C@H](C)Nc2ncnc3c(C(F)(F)F)cc(Cl)cc23)ncn1` [Compound P31, 6-[5-[(1S)-1-[[6-chloro-8-(trifluoromethyl)quinazolin-4-yl]amino]ethyl]-1,2,4-triazol-1-yl]-N-ethyl-N-methyl-pyrimidine-4-carboxamide]: the percent control (mortality, anti-feedant effect or growth inhibition) at 200 ppm in the experiment with Chilo suppressalis and in the experiment with Spodoptera littoralis was no less than 80% in each case. Further, the percent effect (mortality or growth inhibition) at 200 ppm in the experiment with Diabrotica balteata and in the experiment on Plutella xylostella [2] was no less than 80% in each case. Moreover, the mortality at 12 ppm with Myzus persicae [1] was no less than 80%. In the experiment with Myzus persicae [3], this compound displayed a mortality at 200 ppm of no less than 80%. Further, the percent effect (mortality or growth inhibition) at 50 ppm in the experiment on Pseudoplusia includens is no less than 80%.

Take `C[C@H](Nc1ncnc2c(S(=O)(=O)C(F)(F)F)cc(Cl)cc12)c1ncnn1-c1cc(C(N)=O)ncn1` [Compound P59, 6-[5-[(1S)-1-[[6-chloro-8-(trifluoromethylsulfonyl)quinazolin-4-yl]amino]ethyl]-1,2,4-triazol-1-yl]pyrimidine-4-carboxamide]: the percent control (mortality, anti-feedant effect or growth inhibition) at 200 ppm with Chilo suppressalis and in the experiment with Spodoptera littoralis was no less than 80% each time. The percent effect (mortality or growth inhibition) at 200 ppm in the experiment with Diabrotica balteata, in the experiment with Euschistus heros and in the experiment on Plutella xylostella [2] was no less than 80% in each case. Besides, the mortality at 12 ppm with Myzus persicae [1] is no less than 80%. The same compound showed a mortality at 200 ppm in the experiment on Myzus persicae [3] of no less than 80%.
